Laboratory results as given in patent US6255323A, “Cyanoguanidine compounds” (Shionogi Bioresearch Corp., priority 2000, dated 2001).

Assays:
[1] = test system: Non-Hodgkin's B cell lymphoma (RL) tumor; experiment: RL human tumor xenograft regression assay; assay type: in vivo, human tumor in female NIH Swiss nude mice; settings: for gross toxicity: 2780 75, 2889 90, 2897 75, 2900 60, 2727 60 mg/kg (2727: reduced to once per day); for tumor regression: within the first two weeks of dosing, IV morning + IP afternoon, 2780 75, 2889 90, 2897 75, 2900 60, 2727 60 mg/kg; for average tumor volume, % of tumor volume obtained in the control: Day 21, 75 mg/kg
Method: The antitumor activity of a cyanoguanidine compound of this invention can also be evaluated by in vivo testing, e.g., human tumor xenograft regression assays. Animals bearing established tumors are treated with a test compound for a three-week period. The growth of the tumors and the general health of the animal are monitored during the three-week treatment and for two more weeks after treatment to determine if tumor regrowth occurs. See Example 150 below.
(§1) From the in vitro results obtained, cyanoguanidine compounds were selected for human tumor xenograft regression assays. Animals bearing established tumors (RL) were treated with a test compound for a three-week period. The growth of the tumors and the general health of the animals were monitored during the treatment and for an additional two weeks after dosing had been terminated to determine if tumor regrowth took place.
(§2) Non-Hodgkin's B cell lymphoma (RL) tumor cells, which were adapted to grow as solid tumors, were implanted by an intradermal injection of a tumor cell suspension (30×10^6 cells in 0. 1 mL media) in the flanks of female NIH Swiss nude mice (Taconic Labs). Each mouse was implanted with one tumor and 6-8 mice per group were used.
(§3) Dosing was initiated one week after implantation (Day 1), when tumors reached approximately 50 to 100 mm^3 in volume, with a test compound or vehicle five times per week for three weeks either intravenously (IV) or intraperitoneally (IP). Cyclophosphamide (CTX, Sigma) was used as a standard in the assays. Compounds were first dissolved in DMSO (Sigma) and formulated with 20% Cremophor RH40 (BASF) to a final concentration of 10% DMSO/18% Cremophor. The formulated solution was made fresh daily.
(§4) Tumors, assumed to be hemi-ellipsoid in shape, were measured with calipers in three dimensions. Tumor volumes were calculated using the equation:
(§5) where L=length, W=width, and H=height of the tumor. Animals were weighed and their general health was monitored during the course of the assay. When tumors became necrotic or if animals became moribund, the animals were euthanized by CO2 asphyxiation. Student's t test was used to determine if there was a significant difference between the data obtained in the compound treated group and the vehicle treated group.
In a preliminary RL tumor growth regression assay, eight compounds were administered twice a day (via IV route in the morning and IP route in the afternoon) for five days per week for a three-week period. […] For comparison, cyclophosphamide, reduced the average tumor volume to 2% of control by Day 18. […] Compounds SBR-11-2899 (75 mg/kg), SBR-11-2750 (75 mg/kg), and SBR-11-2749 (75 mg/kg) reduced the average tumor volume to 10%, 14%, and 18% of the tumor volume obtained in the control on Day 21, respectively. One compound, SBR-11-4483 (60 mg/kg) was administered once per day (via IV route) for a two-week period. By day 19, a reduction of the average tumor volume to 1% was observed.

[2] = test system: Non-Hodgkin's B cell lymphoma (RL) tumor; experiment: RL tumor growth regression assay, dose dependence; assay type: in vivo; settings: for weight loss: all mice except one CTX-treated mouse; for effect on tumor volume (in words): three doses
Method: as §1, §2, §3, §4, §5
The ability of compounds to act in a dose dependent manner was assayed in an RL tumor growth regression assay using compounds SBR-11-2897 and SBR-11-2780.

[3] = test system: tumor cell line (PC-3) versus normal cell line (CV-1); experiment: Tumor cell selectivity: IC50 normal cell line (CV-1) versus tumor cell line (PC-3); assay type: cell-based, human (PC-3); monkey (CV-1, transformed monkey kidney cells); settings: CV-1 normal cell line vs PC-3 tumor cell line
Method: The antitumor activity of a cyanoguanidine compound of this invention can be evaluated by MTS colorimetric assay (see Example 149 below). Results obtained by using cell lines of various types of tumors are compared with those obtained by using cell lines of normal cells in this assay. Viability of the cells in each cell line is estimated by measuring the cellular conversion of a tetrazolium salt after incubating the cells in a solution containing a test cyanoguanidine compound in a 96 well plate. IC50 values obtained by using an identical test compound on normal cells and cells of a particular tumor cell line are compared and their ratio (IC50 normal cell /IC50 cancer cell) indicates the cancer selectivity of that test compound. The higher the ratio, the higher the selectivity of the test compound towards that particular type of cancer cell.
In the secondary screening, IC50 values were determined. Cells were seeded at a low cell density in 96 well flat-bottom plates and incubated for 24 hours at 37° C. in a 7% CO2 atmosphere. […]

[4] = twice a day IV + IP, 5 days/week, 3 weeks, 2780 75, 2889 90, 2897 75, 2900 60 mg/kg
[5] = twice a day IV + IP, 5 days/week, 3 weeks

Row | Compound | weight loss [1, 4] | gross toxicity [1, 5] | tumor regression ([1]; 5 days/week) | other results
1 | Cc1c(C)c2c(c(C)c1O)CCC(C)(C(=O)Nc1ccc(CNC(=NC#N)Nc3ccncc3)cc1)O2 (stereo not shown) [SBR-11-2780, 6-Hydroxy-2,5,7,8-tetramethyl-chroman-2-carboxylic acid (4-(N'-cyano-N"-pyridin-4-yl-guanidinomethyl)-phenyl)-amide] | less than 10% | little gross toxicity | completely regressed all tumors | average tumor volume, % of control group ([2]; 20 mg/kg): 86%; average tumor volume, % of control group ([2]; 40 mg/kg): 24%; average tumor volume, % of control group ([2]; 80 mg/kg): 3%; weight loss [2]: Less than 10%; effect on tumor volume (in words) [2]: dose dependent effect
2 | COc1ccc2cc(C(C)C(=O)Nc3ccc(CNC(=NC#N)Nc4ccncc4)cc3)ccc2c1 (stereo not shown) [SBR-11-2749, 2-(6-Methoxy-naphthalen-2-yl)-N-(4-(N'-cyano-N"-pyridin-4-yl-guanidinomethyl)-phenyl)-propionamide] |  |  |  | average tumor volume, % of tumor volume obtained in the control ([1]; twice a day IV + IP): 18%
3 | O=P1(N(CCCl)CCCl)NCCCO1 (stereo not shown) [cyclophosphamide, Cyclophosphamide, reference compound] |  |  |  | average tumor volume, % of control ([1]; by Day 18, cyclophosphamide standard): 2%
4 | N#CN=C(NCc1ccc(NC(=O)C2c3ccccc3-c3ccccc32)cc1)Nc1ccncc1 [SBR-11-2727, 9H-fluorene-9-carboxylic acid (4-(N'-cyano-N"-pyridin-4-yl-guanidinomethyl)-phenyl)-amide] |  | signs of gross toxicity within the first week | completely regressed all tumors | 
5 | N#CN=C(NCc1ccc(NS(=O)(=O)c2cccc3ccccc23)cc1)Nc1ccncc1 [SBR-11-2900, Naphthalene-1-sulfonic acid (4-(N'-cyano-N"-pyridin-4-yl-guanidinomethyl)-phenyl)-amide] | less than 10% | little gross toxicity | completely regressed all tumors | 
6 | CC(=O)O[C@H]1C(=O)[C@@]2(C)[C@H]([C@H](OC(=O)c3ccccc3)[C@]3(O)C[C@H](OC(=O)[C@H](O)[C@@H](NC(=O)c4ccccc4)c4ccccc4)C(C)=C1C3(C)C)[C@]1(OC(C)=O)CO[C@@H]1C[C@@H]2O [Taxol] |  |  |  | selectivity of tumor cells (IC50 normal cell /IC50 cancer cell) [3]: 20 fold
7 | N#CNC(=Nc1ccncc1)NCCN1CCC(OC(c2ccccc2)c2ccccc2)CC1 [SBR-11-4483, N-[2-(4-Benzhydryloxy-piperidin-1-yl)-ethyl]-N'-cyano-N"-pyridin-4-yl-guanidine] |  |  |  | weight loss ([1]; 60 mg/kg once per day IV, two weeks): less than 10%; reduction of the average tumor volume to ([1]; by day 19, 60 mg/kg once per day IV, two weeks): 1%
8 | Cc1cc(C)c(S(=O)(=O)Nc2ccc(CNC(=NC#N)Nc3ccncc3)cc2)c(C)c1 [SBR-11-2889, 2,4,6-Trimethyl-N-(4-(N'-cyano-N"-pyridin-4-yl-guanidinomethyl)-phenyl)-benzenesulfonamide] | less than 10% | little gross toxicity | completely regressed all tumors | 
9 | N#CN=C(NCc1ccc(NC(=O)c2ccccc2Cc2ccccc2)cc1)Nc1ccncc1 [SBR-11-2750, 2-Benzyl-N-(4-(N'-cyano-N"-pyridin-4-yl-guanidinomethyl)-phenyl)-benzamide] |  |  |  | average tumor volume, % of tumor volume obtained in the control ([1]; twice a day IV + IP): 14%
10 | CN(C)c1cccc2c(S(=O)(=O)Nc3ccc(CNC(=NC#N)Nc4ccncc4)cc3)cccc12 [SBR-11-2897, 5-Dimethylamino-naphthalene-1-sulfonic acid (4-(N'-cyano-N"-pyridin-4-yl-guanidinomethyl)-phenyl)-amide] | less than 10% | little gross toxicity | completely regressed all tumors | weight loss [2]: Less than 10%; effect on tumor volume (in words) [2]: almost complete reduction of average tumor volumes
11 | N#CN=C(NCc1ccc(NS(=O)(=O)c2cccc(C(F)(F)F)c2)cc1)Nc1ccncc1 [SBR-11-2899, N-(4-(N'-Cyano-N"-pyridin-4-yl-guanidinomethyl)-phenyl)-3-trifluoromethyl-benzenesulfonamide] |  |  |  | average tumor volume, % of tumor volume obtained in the control ([1]; twice a day IV + IP): 10%
